Where two headings read alike, the source gives them in different places.
Columns and labels:
[1] = system: Male Sprague-Dawley Rats; test: Serum clinical chemistries in male Sprague-Dawley rats; format: in vivo
Description: Measurement of Antioxidant Activity and Bioavailability of Compounds of Formula (1) By In Vivo Screening in Male Sprague-Dawley Rats
(§1) A typical experiment consists of 4-6 groups of rats (N=5 per group) with 1 group being a control which receives no MDL compound and the other groups being treated with 0.3% MDL compound. […] Mix the MDL compound with approximately 50 grams of food using a mortar and pestle. This is added to the remainder of the food and mixed for 3 hours on a rotary mixer. In the morning of day 5, anesthetize non-fasted rats with carbon dioxide, and collect blood by cardiac puncture. Sacrifice rats by cervical dislocation. Record body weights and liver weights in grams. Record food consumption as grams·day^-1 ·rat^-1. Deaths are recorded as mortality. Use aliquots of fresh serum for clinical chemistries, thiobarbituric acid reactive substances (TBARS) and conjugated diene measurements. Freeze aliquots of serum (~0.5 mL) and whole livers at -20° C. for compound and metabolite concentration determination at a later time.
Allow blood to clot at room temperature for 30 minutes. Obtain serum after centrifugation for 10 min at 4° C. at 3000 rpm in a Beckman J-6M/E centrifuge with a JS-4.2 rotor. […] Calculate ALP, ALT, and AST as units/L. Calculate cholesterol, triglycerides, and glucose as mg/dL.

[2] = HPLC quantitation of compound and metabolite concentration in rat serum and liver; conditions: in vivo; for concentration at 96 h: po, 0.3% in diet, 4 days
Description: (§2) A typical experiment consists of 4-6 groups of rats (N=5 per group) with 1 group being a control which receives no MDL compound and the other groups being treated with 0.3% MDL compound. Some of the compounds are either repeated at 0.3% or evaluated again at the lower dose of 0.1%. House Male Sprague-Dawley rats, 50-100 g, (Harlan Laboratories, Indianapolis, Ind.) in groups of 5, feeding ad libitum water and Purina Rodent chow (#5002) with or without MDL compound as a dietary admixture for 4 days. Make dietary admixtures (0.3%) by mixing 1.2 grams of an MDL compound with 400 grams of Purina rodent chow (#5002). Mix the MDL compound with approximately 50 grams of food using a mortar and pestle. This is added to the remainder of the food and mixed for 3 hours on a rotary mixer. In the morning of day 5, anesthetize non-fasted rats with carbon dioxide, and collect blood by cardiac puncture. Sacrifice rats by cervical dislocation. Record body weights and liver weights in grams. Record food consumption as grams·day^-1 ·rat^-1. Deaths are recorded as mortality. Use aliquots of fresh serum for clinical chemistries, thiobarbituric acid reactive substances (TBARS) and conjugated diene measurements. Freeze aliquots of serum (~0.5 mL) and whole livers at -20° C. for compound and metabolite concentration determination at a later time.
Determine serum and liver concentrations of parent compound and the metabolites, bisphenol and diphenoquinone, by reverse phase HPLC using a Waters 990 Powerline system. Homegenize livers (1 gram samples) with 5.0 mL PBS, pH 7.4, using a Polytron tissue homogenizer at setting 5 for 20-30 seconds. Extract serum or liver homogenates as follows: add 100 μL of either serum or homogenate to 2.0 mL diethyl ether:ethanol (3:1) while vortexing the tube. Cap the sample tubes and centrifuge for 10 min at 5° C. at 3500 rpm in a Beckman GPKR centrifuge with a GH 3.7 rotor. Transfer the supernatants to clean tubes and dry under N2. Reconstitute samples with 200 μL of acetonitrile:hexane:0.1 M ammonium acetate (90:6.5:3.5, by vol.). Then, inject 100 μL onto a Waters Deltapak C18-300 Å column, and elute with an 83% acetonitrile:17% water mobile phase at a flow rate of 1.5 mL/min. Record absorbances at the wavelengths of 240, 254, and 420nm. Calculate compound concentrations from known quantities of authentic parent compounds after correction for recovery. […]. Calculate concentrations as μg/mL of serum and μg/g of liver.

[3] = Animal parameters (food, body weight, liver weight, mortality) in male Sprague-Dawley rats; format: in vivo; conditions: for mortality at 96 h: po, read-out: mortality (deaths per group)
Description: as §2

[4] = system: oxidation of serum lipids; test: TBARS assay (oxidation of serum lipids) in male Sprague-Dawley rats; format: in vivo; conditions: feed or water, 96 h, rat serum, 4 days, N = 5, CuSO4-initiated, 3 hr, read-out: TBARS, percent of control
Description: as §1
In this assay the oxidation of serum lipids is initiated with CuSO4, resulting in the formation of aldehydes, such as malondialdehyde (MDA). Upon incubation with thiobarbituric acid, the absorbance of the aldehydes can be detected at 530-540 nm. […] Measure TBARS as follows: mix 100 μL of serum with 400 μL of a 5 mmol CuSO4 solution and incubate at 37° C. for 3 hr. Stop the reactions by addition of 1.0 mL of 20% trichloroacetic acid. […] Centrifuge samples briefly to pellet undissolved material, and transfer the supernatants to a 96-well microtiter plate. Measure absorbances at 540 nm using a Biotek model EL311 microplate reader. The nmoles of MDA produced are calculated from a standard curve of 0 to 10 nmoles of MDA prepared from malonaldehyde bis(dimethylacetal). Serum samples from treated rats are compared to serum samples from control rats that received no MDL compound.

[5] = system: ICAM-1; conditions: vascular endothelial cells; Mauri, N. et al.; cited from earlier work
[6] = system: VCAM-1; conditions: vascular endothelial cells; Mauri, N. et al.; cited from earlier work
[7] = rat serum, 0.3% in diet, 4 days, N = 5
[8] = mean N = 5, read-out: Serum Parent (parent compound concentration)
[9] = in vivo, rat, 0.3% in diet, 4 days, N = 5
[10] = rat, 0.3% in diet, 4 days, N = 5
[11] = mean N = 5, read-out: Liver Parent (parent compound concentration)

Structure (SMILES): CC(C)=CCC[C@H](C)CCOc1ccc(O)c(C(C)(C)C)c1 [103,649]
- response vs control in vivo at 0.3 % in diet ([1]; Rattus norvegicus, feed or water, 96 h, read-out: TRIG (triglycerides), percent of control): 143%
- ALP (alkaline phosphatase), percent of control [1, 7]: 74%
- ALT (alanine aminotransferase), percent of control [1, 7]: 119%
- AST (aspartate aminotransferase), percent of control [1, 7]: 82%
- GLUC (glucose), percent of control ([1]; rat, in vivo): 101%
- Liver Bis (bisphenol concentration) ([2]; 5760 min): 0
- Liver Parent (parent compound concentration) ([2]; 5760 min): 0
- Liver Quin (diphenoquinone concentration) ([2]; 5760 min): 0
- Serum Bis (bisphenol concentration) ([2]; 5760 min): 0
- Serum Quin (diphenoquinone concentration) ([2]; 5760 min): 0
- concentration at 96 h [2, 8]: 1400 ng/mL
- food (grams eaten per day per rat), percent of control ([3]; in vivo): 95%
- mortality at 96 h [3, 9]: 0%
- body wt., percent of control ([3]; rat, in vivo): 94%
- response vs control in vivo at 0.3 % in diet [4]: 29%

Structure (SMILES): CC(C)=CCC[C@H](C)CCOc1cc(C(C)(C)C)c(O)cc1C(C)(C)C [107,059]
- AST (aspartate aminotransferase), percent of control [1, 7]: 140%
- ALP (alkaline phosphatase), percent of control ([1]; rat, in vivo): 118%
- ALT (alanine aminotransferase), percent of control ([1]; rat, in vivo): 116%
- GLUC (glucose), percent of control ([1]; rat, in vivo): 96%
- Liver Bis (bisphenol concentration) ([2]; 5760 min): 0
- Liver Parent (parent compound concentration) ([2]; 5760 min): 0
- Liver Quin (diphenoquinone concentration) ([2]; 5760 min): 0
- Serum Bis (bisphenol concentration) ([2]; 5760 min): 0
- Serum Parent (parent compound concentration) ([2]; 5760 min): 0
- Serum Quin (diphenoquinone concentration) ([2]; 5760 min): 0
- food (grams eaten per day per rat), percent of control ([3]; in vivo): 95%
- mortality at 96 h [3, 9]: 0%
- body wt., percent of control [3, 10]: 95%
- lw/bw (liver weight/body weight), percent of control [3, 10]: 107%
- response vs control in vivo at 0.3 % in diet [4]: 78%

Structure (SMILES): S=C(S)N1CCCC1 [pyrollidine dithiocarbamate]
- inhibition of cytokine-induced expression of ICAM-1 [5]: not ICAM-1
- inhibition of cytokine-induced expression of VCAM-1 [6]: inhibit cytokine-induced expression of VCAM-1

Structure (SMILES): CC(C)CCCC(C)CCOc1ccc(O)c(C(C)(C)C)c1 (centres unmarked) [104,191]
- ALP (alkaline phosphatase), percent of control [1, 7]: 81%
- ALT (alanine aminotransferase), percent of control [1, 7]: 149%
- AST (aspartate aminotransferase), percent of control [1, 7]: 146%
- GLUC (glucose), percent of control ([1]; rat, in vivo): 106%
- Liver Bis (bisphenol concentration) ([2]; 5760 min): 0
- Liver Quin (diphenoquinone concentration) ([2]; 5760 min): 0
- Serum Bis (bisphenol concentration) ([2]; 5760 min): 0
- Serum Quin (diphenoquinone concentration) ([2]; 5760 min): 0
- concentration at 96 h [2, 11]: 16100 ng/g
- concentration at 96 h [2, 8]: 6900 ng/mL
- food (grams eaten per day per rat), percent of control ([3]; in vivo): 76%
- mortality at 96 h [3, 9]: 0%
- body wt., percent of control ([3]; rat, in vivo): 92%
- response vs control in vivo at 0.3 % in diet [4]: 20%

Structure (SMILES): CC(CCCC(C)(C)O)CCSc1cc(C(C)(C)C)c(O)c(C(C)(C)C)c1 (centres unmarked) [104,487]
- ALP (alkaline phosphatase), percent of control [1, 7]: 137%
- ALT (alanine aminotransferase), percent of control [1, 7]: 129%
- AST (aspartate aminotransferase), percent of control [1, 7]: 124%
- GLUC (glucose), percent of control [1, 7]: 92%
- Liver Quin (diphenoquinone concentration) ([2]; 5760 min): 0
- Serum Bis (bisphenol concentration) ([2]; 5760 min): 0
- Serum Quin (diphenoquinone concentration) ([2]; 5760 min): 0
- concentration at 96 h [2, 11]: 3800 ng/g
- concentration at 96 h [2, 8]: 4100 ng/mL
- food (grams eaten per day per rat), percent of control ([3]; 0.3% in diet, 4 days, N = 5): 90%
- mortality at 96 h [3, 9]: 0%
- body wt., percent of control [3, 10]: 95%
- response vs control in vivo at 0.3 % in diet [4]: 87%

— patent US6114572A, “Substituted phenols and thiophenols useful as antioxidant agents” (priority 1997, dated 2000)
